# Experimental data reported in US20250059204A1, “FUSED BENZOISOXAZOLYL COMPOUNDS AS KAT6A INHIBITORS” (Aurigene Oncology Limited, priority 2021, published 2025).
# Target: human-KAT6A (MYST domain 507-778 aa) (Homo sapiens (Human), UniProt Q92794)
# Test: KAT6A biochemical assay (TR-FRET)
# Settings: H4 peptide 200 nM, acetyl-CoA 600 nM
# Description: TR-FRET based method was used for assaying compounds of the present invention for KAT6A enzyme inhibitory activity. TR-FRET is homogeneous proximity assay where Europium-labelled anti-acetyl lysine antibody binds to the acetylated substrate labelled with biotin which in turn binds to streptavidin labelled APC fluorescence acceptor. Europium can transfer energy to APC in the complex and the interaction of two dye-labelled binding partners is detected by the energy transfer between a donor and an acceptor dye, and the subsequent light emission by the acceptor dye. KAT6A transfer an acetyl group from acetyl CoA to lysine amino acids of histones/target proteins. Typically, 5 μL of human-KAT6A (MYST domain 507-778 aa) in assay buffer (100 mM Tris HCl (pH 7.8), 15 mM NaCl, 1 mM EDTA, 0.01% Tween-20, 0.02% BSA, 1 mM DTT) is added to 384-well plate containing 5 μL of selected test compound in final 1% DMSO, serially diluted in 1:3 in an 8-10-point titration. The selected compound of the present invention and enzyme are incubated for 30 min at room temperature. Next, 5 μL of substrate mix containing histone H4 peptide and acetyl-CoA in assay buffer is added to the plate. The final concentrations of H4 peptide and acetyl-CoA are 200 nM and 600 nM respectively. Following 30 min reaction at room temperature, 5 μL of detection mix containing Europium labelled anti-acetyl antibody and streptavidin-APC is added to the reaction wells. The plate is further incubated for 45 min at room temperature and is read in TR-FRET mode (Ex:340 nm; Em: 615 nm and 665 nm) on a plate reader. The percent inhibition was calculated from the ratio of the fluorescence (FL) intensities [(F665/F615)×10,000) using the formula […]. IC50 values of the compounds were determined by fitting the dose-response data to sigmoidal curve fitting equation using Graph pad prism software V8.
# Chain of human-KAT6A (MYST domain 507-778 aa) (Q92794 507-778): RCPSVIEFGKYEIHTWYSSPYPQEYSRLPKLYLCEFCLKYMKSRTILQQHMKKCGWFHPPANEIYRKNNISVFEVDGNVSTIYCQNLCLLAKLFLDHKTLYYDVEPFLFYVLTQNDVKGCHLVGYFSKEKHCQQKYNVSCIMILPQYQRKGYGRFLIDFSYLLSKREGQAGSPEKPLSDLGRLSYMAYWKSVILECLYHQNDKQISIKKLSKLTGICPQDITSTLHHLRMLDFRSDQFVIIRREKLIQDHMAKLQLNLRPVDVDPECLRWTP
row,IC50,SMILES
1,88 nM,COc1cccc(OC)c1S(=O)(=O)Nc1noc2cc(-c3scnc3C)c3c(c12)OCC3 [Compound 11]
2,21 nM,"COc1cccc(OC)c1S(=O)(=O)Nc1noc2cc(Cn3cccn3)c3c(c12)OC(C)C3 (single isomer, unassigned) [Compound 22, N-(4-((1H-pyrazol-1-yl)methyl)-2-methyl-2,3-dihydrobenzofuro[7,6-d]isoxazol-8-yl)-2,6-dimethoxybenzenesulfonamide]"
3,32 nM,O=S(=O)(Nc1noc2cc(Cn3cccn3)c3c(c12)OCC3)c1ccccc1OCc1ccccn1 [Compound 38]
4,35 nM,COc1cccc(OC)c1S(=O)(=O)Nc1noc2cc(-c3ccccc3)c3cc(C)oc3c12 [Compound 59]
5,37 nM,COc1cccc(OC)c1S(=O)(=O)Nc1noc2cc(-c3ccccc3)c3c(c12)OC(C)C3 (stereo not drawn) [Compound 18]
6,12 nM,COc1cc2c(cc1S(=O)(=O)Nc1noc3cc(Cn4cccn4)c4c(c13)OCC4)CCCC2 [Compound 43]
7,51 nM,COc1cccc(OC)c1S(=O)(=O)Nc1noc2cc(C(C)n3cccn3)c3c(c12)OCC3 (stereo not drawn) [Compound 20]
8,76 nM,COc1ccc(C(C)(C)C)cc1S(=O)(=O)Nc1noc2cc(Cn3cccn3)c3c(c12)OCC3 [Compound 49]
9,158 nM,COc1cccc(OC)c1S(=O)(=O)Nc1noc2cc(-c3cccnc3)c3c(c12)OCC3 [Compound 54]
10,23 nM,"COc1ccc(C(=O)O)cc1S(=O)(=O)Nc1noc2cc(Cn3cccn3)c3c(c12)OCC3 [Compound 63, 3—(N-(4-((1H-pyrazol-1-yl)methyl)-2,3-dihydrobenzofuro[7,6-d]isoxazol-8-yl)sulfamoyl)-4-methoxybenzoic Acid]"
11,74 nM,COc1cccc(OC)c1S(=O)(=O)Nc1noc2cc(-c3ccccc3)c3c(c12)OCCC3C (stereo not drawn) [Compound 17]
12,45 nM,COc1cccc(OC)c1S(=O)(=O)Nc1noc2cc(-c3ccccc3)c3c(c12)OCCC3 [Compound 15]
13,29 nM,O=S(=O)(Nc1noc2cc(Cn3cccn3)c3c(c12)OCC3)c1ccccc1-c1ccccc1 [Compound 53]
14,20 nM,CCc1ccc(OC)c(S(=O)(=O)Nc2noc3cc(Cn4cccn4)c4c(c23)OCC4)c1 [Compound 46]
15,280 nM,"COCC1Cc2c(Cn3cccn3)cc3onc(NS(=O)(=O)c4c(OC)cccc4OC)c3c2O1 (single isomer, unassigned) [Compound 61, N-(4-((1H-pyrazol-1-yl)methyl)-2-(methoxymethyl)-2,3-dihydrobenzofuro[7,6-d]isoxazol-8-yl)-2,6-dimethoxybenzenesulfonamide]"
16,40 nM,O=S(=O)(Nc1noc2cc(Cn3cccn3)c3c(c12)OCC3)c1c(Cl)cccc1Cl [Compound 45]
17,150 nM,COc1csc(-c2cc3onc(NS(=O)(=O)c4c(OC)cccc4OC)c3c3c2CCO3)c1 [Compound 7]
18,26.6 nM,COC(=O)c1ccc(OC)c(S(=O)(=O)Nc2noc3cc(Cn4cccn4)c4c(c23)OCC4)c1 [Compound 42]
19,20 nM,"COc1cccc(OC)c1S(=O)(=O)Nc1noc2cc(Cn3cccn3)c3c(c12)OCC3 [Compound 2, N-(4-((1H-pyrazol-1-yl)methyl)-2,3-dihydrobenzofuro[7,6-d]isoxazol-8-yl)-2,6-dimethoxybenzenesulfonamide]"
20,164 nM,"COCC1Cc2c(Cn3cccn3)cc3onc(NS(=O)(=O)c4c(OC)cccc4OC)c3c2O1 (single isomer, unassigned) [Compound 62, N-(4-((1H-pyrazol-1-yl)methyl)-2-(methoxymethyl)-2,3-dihydrobenzofuro[7,6-d]isoxazol-8-yl)-2,6-dimethoxybenzenesulfonamide]"
21,26 nM,COc1cc(C(C)(C)C)ccc1S(=O)(=O)Nc1noc2cc(Cn3cccn3)c3c(c12)OCC3 [Compound 47]
22,25 nM,COc1cccc(OC)c1S(=O)(=O)Nc1noc2cc(Cn3ccnn3)c3c(c12)OCC3 [Compound 41]
23,43 nM,COc1cccc(OC)c1S(=O)(=O)Nc1noc2cc(-c3ccsc3)c3c(c12)OCC3 [Compound 3]
24,19 nM,"COc1cccc(OC)c1S(=O)(=O)Nc1noc2cc(Cn3cccn3)c3c(c12)OC(C)C3 (stereo not drawn) [Compound 21, N-(4-((1H-pyrazol-1-yl)methyl)-2-methyl-2,3-dihydrobenzofuro[7,6-d]isoxazol-8-yl)-2,6-dimethoxybenzenesulfonamide]"
25,31 nM,COCc1cc2onc(NS(=O)(=O)c3c(OC)cccc3OC)c2c2c1CCO2 [Compound 19]
26,99 nM,"COCC1Cc2c(Cn3cccn3)cc3onc(NS(=O)(=O)c4c(OC)cccc4OC)c3c2O1 (stereo not drawn) [Compound 60, N-(4-((1H-pyrazol-1-yl)methyl)-2-(methoxymethyl)-2,3-dihydrobenzofuro[7,6-d]isoxazol-8-yl)-2,6-dimethoxybenzenesulfonamide]"

row,IC50,SMILES
1,57 nM,"COc1cccc(OC)c1S(=O)(=O)Nc1noc2cc(-c3ccccc3)c3c(c12)OCC3 [Compound 1, 2,6-dimethoxy-N-(4-phenyl-2,3-dihydrobenzofuro[7,6-d]isoxazol-8-yl)benzenesulfonamide]"
2,22 nM,COc1cc(-n2cccn2)ccc1S(=O)(=O)Nc1noc2cc(Cn3cccn3)c3c(c12)OCC3 [Compound 39]
3,127 nM,COc1cccc(OC)c1S(=O)(=O)Nc1noc2cc(Cn3cc(C#N)cn3)c3c(c12)OCC3 [Compound 33]
4,32.7 nM,COc1cc2c(cc1S(=O)(=O)Nc1noc3cc(Cn4cccn4)c4c(c13)OCC4)CCC2 [Compound 44]
5,35 nM,O=S(=O)(Nc1noc2cc(Cn3cccn3)c3c(c12)OCC3)c1ccccc1F [Compound 51]
6,10 nM,"COc1cc(C2CC2)ccc1S(=O)(=O)Nc1noc2cc(Cn3cccn3)c3c(c12)OCC3 [Compound 65, N-(4-((1H-pyrazol-1-yl)methyl)-2,3-dihydrobenzofuro[7,6-d]isoxazol-8-yl)-4-cyclopropyl-2-methoxybenzenesulfonamide]"
7,27 nM,COc1cccc(OC)c1S(=O)(=O)Nc1noc2cc(Cn3cc(Cl)cn3)c3c(c12)OCC3 [Compound 35]
8,219 nM,COc1cccc(OC)c1S(=O)(=O)Nc1noc2cc(Cn3cc(C(F)(F)F)cn3)c3c(c12)OCC3 [Compound 36]
9,29 nM,COc1cccc(OC)c1S(=O)(=O)Nc1noc2cc(-c3ccoc3)c3c(c12)OCC3 [Compound 4]
10,135 nM,COc1cccc(OC)c1S(=O)(=O)Nc1noc2cc(-c3ccccc3)c3c(c12)OC(C)(C)C3 [Compound 57]
11,34 nM,COc1ccccc1S(=O)(=O)Nc1noc2cc(Cn3cccn3)c3c(c12)OCC3 [Compound 55]
12,43 nM,COc1cccc(OC)c1S(=O)(=O)Nc1noc2cc(-c3ccco3)c3c(c12)OCC3 [Compound 8]
13,21 nM,COc1cccc(OC)c1S(=O)(=O)Nc1noc2cc(Cn3cccn3)c3cc(C)oc3c12 [Compound 58]
14,70 nM,O=S(=O)(Nc1noc2cc(Cn3cccn3)c3c(c12)OCC3)c1ccccc1OC(F)(F)F [Compound 50]
15,494 nM,COc1cccc(OC)c1S(=O)(=O)Nc1noc2cc(Cn3ccc(C(F)(F)F)n3)c3c(c12)OCC3 [Compound 37]
16,30 nM,O=S(=O)(Nc1noc2cc(Cn3cccn3)c3c(c12)OCC3)c1c(F)cccc1F [Compound 48]
17,36 nM,COc1cccc(OC)c1S(=O)(=O)Nc1noc2cc(-c3ccc(C)o3)c3c(c12)OCC3 [Compound 9]
18,27 nM,COc1ccc(-n2cccn2)cc1S(=O)(=O)Nc1noc2cc(Cn3cccn3)c3c(c12)OCC3 [Compound 40]
19,46 nM,COc1cccc(OC)c1S(=O)(=O)Nc1noc2cc(-c3cccs3)c3c(c12)OCC3 [Compound 6]
20,23 nM,"COc1cccc(OC)c1S(=O)(=O)Nc1noc2cc(Cn3cccn3)c3c(c12)OC(C)C3 (single isomer, unassigned) [Compound 23, N-(4-((1H-pyrazol-1-yl)methyl)-2-methyl-2,3-dihydrobenzofuro[7,6-d]isoxazol-8-yl)-2,6-dimethoxybenzenesulfonamide]"
21,26 nM,COc1cccc(OC)c1S(=O)(=O)Nc1noc2cc(Cn3cc(F)cn3)c3c(c12)OCC3 [Compound 34]
22,71 nM,COc1cccc(OC)c1S(=O)(=O)Nc1noc2cc(-c3cc(C)cs3)c3c(c12)OCC3 [Compound 13]
23,32 nM,CCOc1ccccc1S(=O)(=O)Nc1noc2cc(Cn3cccn3)c3c(c12)OCC3 [Compound 52]
24,291 nM,COc1cccc(OC)c1S(=O)(=O)Nc1noc2cc(-c3ccc(C)s3)c3c(c12)OCC3 [Compound 12]
25,18 nM,COc1cc(C(F)(F)F)ccc1S(=O)(=O)Nc1noc2cc(Cn3cccn3)c3c(c12)OCC3 [Compound 31]
